From the pKa sets of Baltruschat and Czodrowski (2020)

| Structure (SMILES) | pKa (basic group) | pKa (acidic group) |
| --- | --- | --- |
| NCCCCl | 9.89 |  |
| [O-]c1ccnc([S-])n1 | 12.7 |  |
| CCCCCCCCCCCCCCCC(=O)N[C@@H](Cc1c[nH]cn1)C(=O)[O-] | 6.2 |  |
| O=C(O[C@@H]1C[C@H]2CC[C@@H](C1)N2)[C@H](CO)c1ccccc1 | 10.3 |  |
| Oc1ccc2cc(Cl)ccc2c1 |  | 9.31 |
| Nc1cccnc1 | 6.08 |  |
| Cc1cncc[nH+]1 | -4.89 |  |
| CCN(CC)Cc1cc(Cl)ccc1[O-] | 11.2 |  |
| C=CCC(C)(CN(CC)CC)OC(=O)c1ccccc1 (stereo not given) | 7.8 |  |
| CCN(N)CC | 7.63 |  |
| Cc1cnc2c(O)cccc2c1C | 5.8 | 10.1 |
| OCCc1cnc(P(c2ncc(CCO)[nH]2)c2ncc(CCO)[nH]2)[nH]1 | 7.7 |  |
| CC(C)(C)OO |  | 12.8 |
| COc1ccc(O)c(Br)c1 |  | 8.62 |
| c1ccc(-c2ncc[nH]2)nc1 | 5.46 |  |
| Cc1ccc(S(=O)(=O)N(CCNCC(=O)[O-])CC(=O)[O-])cc1 |  | 7.83 |
| c1ccc(Oc2cccnc2)cc1 | 4.24 |  |
| Cc1ccc(Cl)c(C(=O)O)c1 |  | 3.12 |
| Nc1ncc(-c2ccccc2)s1 | 4.9 |  |
| Cc1cc([O-])[nH+]cn1 | 2.15 |  |
| COc1ccc(C(=S)Nc2ccc(C)cc2)cc1 |  | 11.8 |
| C[NH+]1CSC[C@H]1C(=O)O |  | 1.51 |
| COc1ccccc1-c1ccccc1O |  | 10.4 |
| NCCC(=O)[O-] | 10.2 |  |
| N[C@H]1CCCC[C@@H]1C(=O)Oc1ccc([N+](=O)[O-])cc1 | 8.57 |  |

| Structure (SMILES) | pKa (basic group) | pKa (acidic group) |
| --- | --- | --- |
| Cc1ccc(NCCNc2ccc(C)cc2)cc1 | 4 |  |
| CC(Br)[N+](=O)[O-] (stereo not given) |  | 7.17 |
| O=c1cc(-c2ccccc2)oc2c(O)cccc12 |  | 7.82 |
| Nc1ccc(S(=O)(=O)Nc2ncccc2O)cc1 |  | 7.6 |
| CCCCCCCCCCCCCCCCN(CC(C)O)CC(C)O (stereo not given) | 9.19 |  |
| O=C([O-])[C@@H]1CCCN1 | 10.6 |  |
| CN(C)C1CC(C)(C)[NH2+]C(C)(C)C1 | 7.67 |  |
| CNC(=O)CS |  | 8.05 |
| N#Cc1cc(-c2ccccc2)nnc1NCCN1CCOCC1 | 6.5 |  |
| CN1CC1 | 7.86 |  |
| Cc1n[nH]c2c(N)ncnc12 | 5.02 |  |
| NC(=O)NOCC(=O)O |  | 2.6 |
| O=C1NC(=O)c2c1cccc2[N+](=O)[O-] |  | 8.8 |
| C[C@@H]1CCC[C@H](C)N1C | 10.2 |  |
| Cn1c(=O)c2c([O-])cnnc2n(C)c1=O | 8.51 |  |
| CCOC(=O)Cc1nc2ccccc2[nH]1 | 5.7 | 13.1 |
| CCc1cc(Cl)c([O-])c(C(=O)NC[C@H]2CCCN2CC)c1OC | 9.54 |  |
| Oc1cccc[n+]1OCc1ccccc1 |  | -1.7 |
| NCC(=O)NCC(=O)[O-] | 8.31 |  |
| Cc1c([N+](=O)[O-])ccc2c(NCCC[NH+](C)C)ccnc12 | 6.71 |  |
| CC(C)C[C@H](N)C(=O)[O-] | 9.62 |  |
| CCCCC[C@H](C)N | 10.8 |  |
| O=C(O)C#CC[NH+]1CCOCC1 |  | 1.79 |
| C[Si](C)(C)c1cccc(C(=O)O)c1 |  | 4.24 |
| [NH3+]c1ccc(-c2cnc(-c3ccccc3)o2)cc1 | 0.5 |  |

| Structure (SMILES) | pKa (basic group) | pKa (acidic group) |
| --- | --- | --- |
| CC(C)(C)CC#CC(=O)O |  | 2.54 |
| CC(c1cccc(C(F)(F)F)c1)[N+](=O)[O-] (stereo not given) |  | 6.96 |
| COc1ccc2c(c1)[nH]c1c(C)nccc12 | 7.73 | 13.5 |
| [O-]c1ccccc1-c1ccccc1O |  | 14.7 |
| CCCc1ncnc2c(O)cccc12 |  | 8.82 |
| CCCCC(CC)CNc1ncnc2[nH]ncc12 (stereo not given) | 4.6 |  |
| CN(C)c1ccc2cc3ccc(N(C)C)cc3[nH+]c2c1 | 0.4 |  |
| Cc1cc(O)ccc1C(=O)O |  | 4.71 |
| Cc1ccc(O)cc1[S+](C)C |  | 8.01 |
| CC(N)Cc1ccc2c(c1)OCO2 (stereo not given) | 9.67 |  |
| COc1ccc(C2CCCN2C)cc1 (stereo not given) | 8.9 |  |
| CCC(P)C(=O)O (stereo not given) |  | 4.08 |
| COc1cccc([O-])n1 | 9.77 |  |
| O[n+]1c2ccccc2cc2ccccc21 |  | 1.37 |
| Cc1cnc2c(ccc3cccnc32)c1 | 5 |  |
| COc1nc([N+](=O)[O-])n[nH]1 |  | 5.35 |
| CCc1ncc[nH]1 | 8.05 |  |
| CCN(CCO)CC(C)O (stereo not given) | 8.9 |  |
| O=C(NCO)c1ccccc1 |  | 13.1 |
| N=C(c1ccccc1)c1ccccc1Cl | 5.59 |  |
| COc1ccnnc1 | 3.7 |  |
| CCCCCN(CCO)CC(O)CC (stereo not given) | 9.1 |  |
| O=C(O)C12CC3CC(CC(F)(C3)C1)C2 |  | 4.22 |
| COC(=O)C1c2ccccc2-c2ccccc21 |  | 11.5 |
| O=C(O)[C@H]1C[C@@H]1c1ccc(Cl)cc1 |  | 4.53 |

| Structure (SMILES) | pKa (basic group) | pKa (acidic group) |
| --- | --- | --- |
| Cn1ccc(=S)c2ccccc21 | 0.56 |  |
| C1=CN2CCC1CC2 | 9.82 |  |
| CC(=O)CC=O |  | 6.12 |
| O=C(O)CCCCC1CCSS1 (stereo not given) |  | 4.82 |
| N#CC(C#N)=C(C#N)Nc1cccc([N+](=O)[O-])c1 |  | 3.45 |
| C/C=C/CCC(=O)O |  | 4.72 |
| O=C(O)c1cccc(O)c1 | -1.01 | 4.07 |
| Cc1cc(-c2ccccc2)nn2c(C[NH+](C)C)cnc12 | 3.18 |  |
| CC(=S)Nc1ccccc1 |  | 11.6 |
| CCCCOc1cccc(C(=O)O)c1 |  | 4.25 |
| CC[NH+](CC)Cc1cc([N+](=O)[O-])ccc1O |  | 5.75 |
| C1=C(c2nc3ccccc3s2)C2CCN1CC2 | 7.4 |  |
| c1ccc(NC2CCCCC2)cc1 | 5.6 |  |
| CN1CCCC1 | 10.6 |  |
| C[NH+](C)CCCN | 6.74 |  |
| C(=C/c1ccncc1)/c1ccncc1 | 5.57 |  |
| COCCNc1ccccc1 | 4.05 |  |
| CCCCSC1=NCCN1 | 9 |  |
| C[NH+](C)CCNCC[NH3+] | 4.36 |  |
| COc1cc(C[NH3+])c(C)cc1N | 4.26 |  |
| O=C([O-])[C@@H]1O[C@H](Oc2cnc3ccccc3c2)[C@@H](O)[C@H](O)[C@H]1O | 3.95 |  |
| C[C@H]1CC[C@@H](C(=O)O)CC1 |  | 5.04 |
| CC(C)N(C)C | 10.3 |  |
| Nc1nc[nH+]c(S)c1N |  | 2.21 |
| CCN(CC)c1ccccc1 | 6.6 |  |

| Structure (SMILES) | pKa (basic group) | pKa (acidic group) |
| --- | --- | --- |
| C1CNCCNCCCNCCNC1 | 11.1 |  |
| O=C1NC(=O)c2ccccc21 |  | 9.91 |
| CC(C)(N)C(C)(C)[NH3+] | 6.56 |  |
| C[Si](C)(C)CCC(=O)O |  | 4.91 |
| O=C([O-])C[NH+](CC(=O)[O-])Cc1cc(Cl)cc(C[NH+](CC(=O)[O-])CC(=O)[O-])c1O |  | 6.27 |
| CSc1nc(N)n[nH]1 | 3.27 |  |
| NCCNCc1ccccc1 | 9.41 |  |
| Cc1cc(C)[nH]n1 | 4.32 | 15 |
| NCc1cc(Cl)ccc1[N+](=O)[O-] | 8.19 |  |
| CCN(CC)CCOCCN(C)C | 10.2 |  |
| Cn1cnc2ncnc([O-])c21 | 8.8 |  |
| CCCCCCCCCCc1c(-c2ccccc2)n[nH]c1O |  | 11 |
| C[NH+](C)c1ccc(/C=C/c2cc[n+](O)cc2)cc1 |  | 1.05 |
| CCCNC(=O)[C@H](Cc1c[nH]cn1)NC(=O)c1cccc(CNCC[NH3+])n1 | 6.5 |  |
| [O-]c1[nH+]cnc2nc[nH]c12 | 1.99 |  |
| Oc1ccc2c(c1)CCC2 |  | 10.3 |
| C(=N\c1ccccc1)/c1ccccc1 | 4.55 |  |
| Nc1ccnc2c1ncn2CCOCP(=O)(O)O | 5.49 |  |
| Cc1cc2nnn(O)c2cc1Cl |  | 4.57 |
| O=C1/C(=N/O)C=Cc2ccccc21 |  | 7.52 |
| c1cncc(-c2cccnc2)c1 | 4.6 |  |
| Cc1cc(C)c([N+](=O)[O-])c(C)c1O |  | 8.98 |
| O=C([O-])c1c(O)ccc2ccccc12 |  | 10.9 |
| O=C1/C(=N\O)C=C(S(=O)(=O)[O-])c2cn[nH]c21 |  | 6.35 |
| CCN1CCCC1 | 11 |  |

| Structure (SMILES) | pKa (basic group) | pKa (acidic group) |
| --- | --- | --- |
| CNc1nnc(-c2ccccc2)s1 | 2.8 |  |
| [S-]c1ccnc([S-])n1 | 11.2 |  |
| COc1nc(C)cc([O-])n1 | 8.4 |  |
| CCCC[NH2+]CC/C(N)=N/O | 3.75 |  |
| C[Si](C)(C)CCN | 11 |  |
| CCN(CC)c1nc(N)nc(N(CC)CC)n1 | 6.28 |  |
| NNC(=O)C[NH3+] | 2.38 |  |
| COc1c(CN)cc(C)cc1CN | 8.85 |  |
| CCCCc1c(C)nn(-c2ccccc2)c1O |  | 11.4 |
| CCC(=O)C1(c2cccc(O)c2)CCN(C)CC1 | 8.67 |  |
| CCC(C)(C)NC1CCCCC1 | 11.2 |  |
| Cc1cc(-c2ccc(N)c(C)c2)ccc1N | 4.64 |  |
| NCC(O)C[NH3+] | 8.19 |  |
| Cc1ccnc(C)c1 | 6.77 |  |
| C/C(=C\C(C)=N\c1ccccc1)Nc1ccccc1 | 7.22 |  |
| CN1C[C@@H](C(=O)[O-])C[C@@]2(O)c3cccc4[nH]cc(c34)C[C@H]12 | 9 |  |
| O=C([O-])CNCCc1nnn[n-]1 | 9.23 |  |
| Cc1ccc(S(=O)(=O)N(C)CCC(=N)N)cc1 | 11.5 |  |
| Nc1ccc(-c2ccc(N)cc2)cc1 | 4.96 |  |
| Cc1[nH+]c2cc(N)ccc2n1C | 3.38 |  |
| CCOCC(=O)O |  | 3.61 |
| CS(=O)C(C)(C)C (stereo not given) | -1.71 |  |
| N#Cc1cccc(S(N)(=O)=O)c1 |  | 8.84 |
| CSc1nc(N)c2c(ncn2[C@H]2O[C@H](CO)[C@@H](O)[C@H]2O)n1 | 3.1 |  |
| Nc1ccc(Br)cc1Br | 2.3 |  |

| Structure (SMILES) | pKa (basic group) | pKa (acidic group) |
| --- | --- | --- |
| CC(C#N)C(=O)O (stereo not given) |  | 2.37 |
| Nc1ccc2nc3cc(N)ccc3cc2c1 | 8.11 |  |
| [NH3+]C(c1ncc[nH]1)c1ncc[nH]1 | 4.07 |  |
| CN[C@@H]1[C@@H](C)[C@@H]1[NH2+]C | 3.68 |  |
| c1ccc(Oc2ccnc3c2ccc2c(Oc4ccccc4)ccnc23)cc1 | 5.34 |  |
| O=[N+]([O-])c1cc(Cl)c(O)c(Cl)c1 |  | 3.7 |
| Oc1ccccc1CN1CCCCC1 | 8.6 |  |
| Cc1ccc2nc(C)c3c(c2c1)OC(C)C3C (stereo not given) | 7.65 |  |
| CC(C)(C(=O)O)c1nnnn1C1CCCCC1 |  | 3.7 |
| O=C(O)CCc1nnnn1-c1ccccc1 |  | 5 |
| CCNC[Si](C)(C)C | 11.1 |  |
| CCOC(=O)c1cnc2cc3c(cc2c1OCC)OCO3 | 4.09 |  |
| CCOC(=O)COc1ccc(C(=O)c2ccc(O)c(C[NH3+])c2)c(Cl)c1Cl |  | 6.38 |
| CCCCN(CCCC)c1ccccc1 | 6.41 |  |
| COc1ccc(O)cc1C |  | 10.2 |
| Cc1cccc(O)c1C(=O)O |  | 3.35 |
| NS(=O)(=O)c1ccccc1 |  | 9.7 |
| Cc1cc(-c2[nH]cc[nH+]2)nn1C | 2 |  |
| C/C=C1/CN2CC[C@]34C(=C(C(=O)OC)[C@H]1C[C@H]23)Nc1ccccc14 | 7.46 |  |
| OCNc1ccc(Cl)cc1 | 2.22 |  |
